What was measured:
Type in all cases: biochemical
Mer (h) = target: T1, Mer (h) (Homo sapiens, UniProt Q12866); test: Enzymatic activity assay, Mer (h) kinase, [γ-33P]-ATP; settings: 10 μM [γ-33P]-ATP, 40 min, room temperature; read-out: Inhibitory Activity on Mer (h), IC50
T1 construct: purchased
T1 sequence (Q12866 21-999): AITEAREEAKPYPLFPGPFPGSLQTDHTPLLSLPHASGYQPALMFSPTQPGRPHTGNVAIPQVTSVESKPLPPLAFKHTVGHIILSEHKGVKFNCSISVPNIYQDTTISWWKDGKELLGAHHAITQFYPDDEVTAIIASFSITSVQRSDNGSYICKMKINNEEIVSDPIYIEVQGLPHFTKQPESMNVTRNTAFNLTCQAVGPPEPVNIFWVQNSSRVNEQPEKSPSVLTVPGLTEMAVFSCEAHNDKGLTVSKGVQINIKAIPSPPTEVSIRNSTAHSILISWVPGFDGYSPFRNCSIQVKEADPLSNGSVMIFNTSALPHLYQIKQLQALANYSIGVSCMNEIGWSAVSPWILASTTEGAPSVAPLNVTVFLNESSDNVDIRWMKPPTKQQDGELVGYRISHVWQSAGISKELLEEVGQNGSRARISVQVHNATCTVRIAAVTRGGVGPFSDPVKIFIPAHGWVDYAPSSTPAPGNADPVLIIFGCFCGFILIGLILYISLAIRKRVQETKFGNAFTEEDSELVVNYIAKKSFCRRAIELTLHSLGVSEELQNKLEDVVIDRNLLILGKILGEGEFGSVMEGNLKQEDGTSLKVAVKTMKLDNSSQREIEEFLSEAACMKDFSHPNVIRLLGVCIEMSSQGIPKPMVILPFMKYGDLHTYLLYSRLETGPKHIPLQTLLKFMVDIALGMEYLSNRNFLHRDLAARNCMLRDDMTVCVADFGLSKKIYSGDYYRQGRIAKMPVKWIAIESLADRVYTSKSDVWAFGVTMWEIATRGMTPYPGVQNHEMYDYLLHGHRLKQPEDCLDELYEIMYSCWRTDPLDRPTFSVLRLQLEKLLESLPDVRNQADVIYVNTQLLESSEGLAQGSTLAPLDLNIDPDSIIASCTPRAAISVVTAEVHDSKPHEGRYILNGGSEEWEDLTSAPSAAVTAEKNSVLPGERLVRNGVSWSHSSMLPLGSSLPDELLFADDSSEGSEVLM
Method: (§1) Test samples: the compounds of the present invention, having structures and preparation methods shown above.
(§2) (1) Preparation of Compound Stock Solutions
(§3) Compounds were each dissolved in 100% DMSO to prepare stock solutions with a maximum concentration of 500 μM.
(§4) (2) Preparation of Compound Working Solutions
(§5) The compound stock solutions were diluted to final concentrations of 500 μM, 150 μM, 50 μM, 15 μM, 5 μM, 1.5 μM, 0.5 μM, 0.15 μM and 0.05 μM to prepare compound working solutions (50×).
(§6) (3) Preparation of different enzymatic reaction solutions
Mer (h) enzyme was dissolved in a mixture of 8 mM MOPS (pH 7.0), 0.2 mM EDTA, 30 mM NaCl and 250 μM GGMEDIYFEFMGGKKK to prepare an enzyme solution with a final concentration of 3.1 nM. An Mg/ATP mixture of 10 mM magnesium acetate and 10 μM [γ-^33P]-ATP was used to activate the enzymatic reaction.
(§7) The compound working solutions were added to a 384-well plate, with final concentrations of 10000 nM, 3000 nM, 1000 nM, 300 nM, 100 nM, 30 nM, 10 nM, 3 nM and 1 nM, respectively, and then different enzymatic reaction solutions prepared according to the above conditions were added. The reaction solutions were incubated at room temperature for 40 min, and then 0.5% phosphoric acid solutions were added to terminate the reaction. 10 μL of the reaction solution was added dropwise to P30 filter paper which was washed 4 times with a 0.425% phosphoric acid solution and once with methanol and then placed in a scintillation counter for detection. Gray analysis was performed on the results with Image J software, and IC50 values were calculated with GraphPad 5.0 software.

Axl (h) = target: T2, Axl (h) (Homo sapiens, UniProt P30530); test: Enzymatic activity assay, Axl (h) kinase, [γ-33P]-ATP; settings: 10 μM [γ-33P]-ATP, 40 min, room temperature; read-out: Inhibitory Activity on Ax1 (h), IC50
T2 construct: purchased
T2 sequence (P30530 26-894): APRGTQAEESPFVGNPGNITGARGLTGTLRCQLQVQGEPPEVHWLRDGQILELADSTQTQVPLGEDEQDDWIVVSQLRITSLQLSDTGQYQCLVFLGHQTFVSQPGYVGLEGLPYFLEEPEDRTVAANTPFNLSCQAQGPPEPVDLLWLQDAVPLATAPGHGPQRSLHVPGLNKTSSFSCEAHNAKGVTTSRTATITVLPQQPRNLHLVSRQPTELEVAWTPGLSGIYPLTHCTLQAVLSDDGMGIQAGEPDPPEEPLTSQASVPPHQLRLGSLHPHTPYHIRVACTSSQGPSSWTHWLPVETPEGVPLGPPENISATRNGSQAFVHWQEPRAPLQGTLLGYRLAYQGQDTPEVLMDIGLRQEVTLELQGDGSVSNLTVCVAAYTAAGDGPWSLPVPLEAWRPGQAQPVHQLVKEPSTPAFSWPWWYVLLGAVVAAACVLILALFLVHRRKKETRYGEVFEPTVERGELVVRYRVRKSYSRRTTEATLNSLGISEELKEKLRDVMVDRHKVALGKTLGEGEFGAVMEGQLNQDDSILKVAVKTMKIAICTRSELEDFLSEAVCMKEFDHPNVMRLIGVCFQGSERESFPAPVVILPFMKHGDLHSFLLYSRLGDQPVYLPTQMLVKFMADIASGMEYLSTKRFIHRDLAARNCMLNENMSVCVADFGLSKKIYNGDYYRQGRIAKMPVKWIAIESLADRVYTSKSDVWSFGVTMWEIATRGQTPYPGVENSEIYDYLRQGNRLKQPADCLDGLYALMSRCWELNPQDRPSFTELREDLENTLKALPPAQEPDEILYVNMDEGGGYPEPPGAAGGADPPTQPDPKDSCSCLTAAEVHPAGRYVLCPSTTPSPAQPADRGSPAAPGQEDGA
Method: as §1, §2, §3, §4, §5, §6
Axl (h) enzyme was dissolved in a mixture of 8 mM MOPS (pH 7.0), 0.2 mM EDTA and 250 μM KKSRGDYMTMQIG to prepare an enzyme solution with a final concentration of 1.7 nM. An Mg/ATP mixture of 10 mM magnesium acetate and 10 μM [γ-^33P]-ATP was used to activate the enzymatic reaction.
as §7

Ron (h) = target: T3, Ron (h) (Homo sapiens, UniProt Q04912); test: Enzymatic activity assay, Ron (h) kinase, [γ-33P]-ATP; settings: 10 μM [γ-33P]-ATP, 40 min, room temperature; read-out: Inhibitory Activity on Ron (h) kinase, IC50
T3 construct: purchased
Method: as §1, §2, §3, §4, §5
(3) Preparation of Different Enzymatic Reaction Solutions
Ron (h) enzyme was dissolved in a mixture of 8 mM MOPS (pH 7.0), 0.2 mM EDTA and 250 μM GGMEDIYFEFMGGKKK to prepare an enzyme solution with a final concentration of 40.4 nM. An Mg/ATP mixture of 10 mM magnesium acetate and 10 μM [γ-^33P]-ATP was used to activate the enzymatic reaction.
as §7

T3 sequence (Q04912 25-1400): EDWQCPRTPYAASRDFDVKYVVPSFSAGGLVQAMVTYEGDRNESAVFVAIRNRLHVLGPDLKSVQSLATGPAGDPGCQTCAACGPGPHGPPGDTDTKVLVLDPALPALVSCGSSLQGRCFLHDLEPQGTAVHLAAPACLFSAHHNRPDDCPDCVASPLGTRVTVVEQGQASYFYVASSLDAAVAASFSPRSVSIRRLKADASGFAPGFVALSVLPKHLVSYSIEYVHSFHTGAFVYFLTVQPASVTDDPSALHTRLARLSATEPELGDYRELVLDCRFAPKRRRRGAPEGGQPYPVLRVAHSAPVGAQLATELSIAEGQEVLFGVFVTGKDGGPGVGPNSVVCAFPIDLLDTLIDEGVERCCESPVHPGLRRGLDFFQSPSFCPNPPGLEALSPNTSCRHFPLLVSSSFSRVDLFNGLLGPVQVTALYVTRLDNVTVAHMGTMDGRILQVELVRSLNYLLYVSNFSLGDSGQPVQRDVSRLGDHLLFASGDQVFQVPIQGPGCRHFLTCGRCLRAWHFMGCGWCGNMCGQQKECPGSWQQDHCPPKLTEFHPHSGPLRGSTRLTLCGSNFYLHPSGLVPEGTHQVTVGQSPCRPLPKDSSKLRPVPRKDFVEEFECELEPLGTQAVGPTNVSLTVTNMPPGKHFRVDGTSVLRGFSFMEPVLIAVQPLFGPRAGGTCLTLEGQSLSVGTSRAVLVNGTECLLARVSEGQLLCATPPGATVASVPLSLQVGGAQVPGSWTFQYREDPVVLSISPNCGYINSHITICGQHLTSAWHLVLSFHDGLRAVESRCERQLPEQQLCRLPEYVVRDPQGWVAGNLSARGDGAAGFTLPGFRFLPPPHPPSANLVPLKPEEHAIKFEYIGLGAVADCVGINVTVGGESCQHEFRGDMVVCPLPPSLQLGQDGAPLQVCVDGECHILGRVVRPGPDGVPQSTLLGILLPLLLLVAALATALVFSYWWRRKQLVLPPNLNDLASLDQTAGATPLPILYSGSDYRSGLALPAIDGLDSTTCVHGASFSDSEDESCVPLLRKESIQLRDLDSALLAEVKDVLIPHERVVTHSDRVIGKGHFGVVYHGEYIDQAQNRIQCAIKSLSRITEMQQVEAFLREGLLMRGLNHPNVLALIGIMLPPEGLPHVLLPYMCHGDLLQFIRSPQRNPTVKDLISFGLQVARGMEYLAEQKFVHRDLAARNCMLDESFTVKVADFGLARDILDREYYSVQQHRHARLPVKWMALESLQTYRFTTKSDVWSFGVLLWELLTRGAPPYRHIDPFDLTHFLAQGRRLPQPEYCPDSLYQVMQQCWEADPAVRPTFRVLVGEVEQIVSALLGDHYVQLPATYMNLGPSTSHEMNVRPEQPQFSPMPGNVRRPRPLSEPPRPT

Row | SMILES | IC50 (Mer (h)) [nM] | IC50 (Axl (h)) [nM] | IC50 (Ron (h)) [nM]
1 | CC(C)n1cc(-c2ccc(F)cc2)c(=O)c(C(=O)Nc2ccc(Oc3ccnc(N)c3Cl)nc2)n1 [Compound 13, N-(6-((2-amino-3-chloropyridin-4-yl)oxy)pyridin-3-yl)-5-(4-fluorophenyl)-1-isopropyl-4-oxo-1,4-dihydropyridazine-3-carboxamide] | 8 | 9 | 16
2 | Nc1nccc(Oc2ccc(NC(=O)c3nn(C4CC4)cc(-c4ccc(F)cc4)c3=O)nc2)c1Cl [Compound 17, N-(5-((2-amino-3-chloropyridin-4-yl)oxy)pyridin-2-yl)-1-cyclopropyl-5-(4-fluorophenyl)-4-oxo-1,4-dihydropyridazine-3-carboxamide] | 2 | 9 | 7
3 | Nc1nccc(Oc2ccc(NC(=O)c3nn(C4CC4)cc(-c4ccc(F)cc4)c3=O)cn2)c1Cl [Compound 19, N-(6-((2-amino-3-chloropyridin-4-yl)oxy)pyridin-3-yl)-1-cyclopropyl-5-(4-fluorophenyl)-4-oxo-1,4-dihydropyridazine-3-carboxamide] | 18 | 12 | 64
4 | Cn1cc(-c2ccc(F)cc2)c(=O)c(C(=O)Nc2ccc(Oc3ccnc(N)c3Cl)cn2)n1 [Compound 33, N-(5-((2-amino-3-chloropyridin-4-yl)oxy)pyridin-2-yl)-5-(4-fluorophenyl)-1-methyl-4-oxo-1,4-dihydropyridazine-3-carboxamide] | 3 | 12 | 17
5 | C=CCn1cc(-c2ccc(F)cc2)c(=O)c(C(=O)Nc2ccc(Oc3ccnc(N)c3Cl)cn2)n1 [Compound 35, 1-allyl-N-(5-((2-amino-3-chloropyridin-4-yl)oxy)pyridin-2-yl)-5-(4-fluorophenyl)-4-oxo-1,4-dihydropyridazine-3-carboxamide] | 4 | 4 | 5
6 | C=CCn1cc(-c2ccc(F)cc2)c(=O)c(C(=O)Nc2ccc(Oc3ccnc(N)c3Cl)nc2)n1 [Compound 39, 1-allyl-N-(6-((2-amino-3-chloropyridin-4-yl)oxy)pyridin-3-yl)-5-(4-fluorophenyl)-4-oxo-1,4-dihydropyridazine-3-carboxamide] | 3 | 12 | 12

The remaining lines, values ahead:

Row | IC50 (Mer (h)) [nM] | IC50 (Axl (h)) [nM] | IC50 (Ron (h)) [nM] | SMILES
7 | 9 | 6 | 2 | CC(C)n1cc(-c2ccc(F)cc2)c(=O)c(C(=O)Nc2ccc(Oc3ccnc(N)c3Cl)cn2)n1 [Compound 11, N-(5-((2-amino-3-chloropyridin-4-yl)oxy)pyridin-2-yl)-5-(4-fluorophenyl)-1-isopropyl-4-oxo-1,4-dihydropyridazine-3-carboxamide]
8 | 8 | 23 | 19 | CC(C)n1cc(-c2ccc(F)cc2)c(=O)c(C(=O)Nc2ncc(Oc3ccnc(N)c3Cl)cn2)n1 [Compound 12, N-(5-((2-amino-3-chloropyridin-4-yl)oxy)pyrimidin-2-yl)-5-(4-fluorophenyl)-1-isopropyl-4-oxo-1,4-dihydropyridazine-3-carboxamide]
9 | 6 | 8 | 14 | Nc1nccc(Oc2cnc(NC(=O)c3nn(C4CC4)cc(-c4ccc(F)cc4)c3=O)nc2)c1Cl [Compound 18, N-(5-((2-amino-3-chloropyridin-4-yl)oxy)pyrimidin-2-yl)-5-(4-fluorophenyl)-1-cyclopropyl-4-oxo-1,4-dihydropyridazine-3-carboxamide]
10 | 7 | 9 | 12 | C=CCn1cc(-c2ccc(F)cc2)c(=O)c(C(=O)Nc2ncc(Oc3ccnc(N)c3Cl)cn2)n1 [Compound 37]
